Data published in EP0187057A1, “2-Phenyl-isopropyl-allophanate, preparation and pharmaceutical application” (priority 1984, dated 1986).
Where “and” joins values, the source holds several entries; their conditions need not be identical. Identical values can stand only once. Like-named read-outs stand apart in the source and are kept apart here.

Columns and labels:
[1] = Acute toxicity by the digestive route, lethality after one week of observation; details: in vivo, po, rat; for mortality at 168 h: read-out: Pourcentage de létalité Rats
Protocol: Des doses croissantes de produit (SCS 289) ont été administrées, par voie digestive, sous forme de suspensions gommeuses, sous le volume de 0,50 ml/20 g de poids corporel chez la souris et 0,50 ml/100 g de poids corporel chez le rat (de 500 à 4000 mg/kg avec des intervalles de 500 mg/kg).
Les animaux ont été maintenus en observation pendant une semaine, tout d'abord dans le laboratoire (avec un chauffage d'appoint) jusqu'au réveil des animaux endormis, puis dans l'unité animale conditionnée et climatisée.
Le taux de mortalité relevé dans chaque lot de rats et de souris au terme de la semaine d'observation a été le suivant :
Les valeurs des DL50, calculées par la méthode de Miller et Tainter sont respectivement de : • - 2300 ± 102 m^g/k^g chez la souris; • - 2050 + 220 mg/kg chez le rat.

[2] = tested on: myoclonies palpébrales provoquées par l'infusion veineuse de pentétrazol; assay: Intravenous pentetrazol infusion producing palpebral myoclonus (threshold seizures); type: in vivo, lapin; details: for Dose moyenne de pentétrazol: controls 23,0; for Quantité de pentétrazol nécessaire à l'apparition des myoclonies palpébrales / Temps d'infusion veineuse nécessaire à l'apparition des myoclonies palpébrales: individual animals; for Temps d'infusion veineuse nécessaire à l'apparition des myoclonies palpébrales: comma separates minutes and seconds
Source text: Propriétés anticonvulsivantes : • On a effectué, pour déterminer ces propriétés anticonvulsivantes, des expérimentations sur le SCS 289 en procédant à des essais de protection : • - chez le lapin soumis à une transélectrification cranienne génératrice de crises épileptiformes de type "grand mal" ou recevant une infusion veineuse de pentétrazol provoquant l'apparition de myoclonies palpébrales; • - chez la souris recevant, par voie sous-cutanée des doses croissantes de pentétrazol entraînant convulsions et mort ou soumise à une transélectrification transcranienne à basse fréquence génératrice de crises psychomotrices.
Les résultats quant à la protection contre les crises pentétrazoliques liminaires génératrices de myaclonies palpébrales figurent dans les tableaux ci-après.
L'administration préalable de SCS 289 retarde l'apparition des myoclonies palpébrales provoquées par l'infusion veineuse de pentétrazol.
Une expérimentation similaire pratiquée en essais croisés a donné les résultats suivants pour divers anticonvulsivants de référence : […]

[3] = Hole-board test (curiosity, exploratory behaviour); type: in vivo, souris; details: mouse, in vivo, po
Source text: (§1) On a donc étudié les effets dépresseurs que peuvent exercer des doses croissantes de SCS 289 sur : • - la motricité spontanée de la souris; • - sa curiosité, quantifiée par la méthode de la planche à trous; • - son agilité, évaluée par l'épreuve de la traction de Boissier et Simon; • - sa force musculaire, mesurée par l'épreuve des poids.
(§2) Les essais ont été pratiqués sur des groupes de 10 souris dont les performances motrices ont été mesurées à deux reprises : avant et une heure après traitement par le SCS 289 administré, par voie digestive à des doses allant de 10 à 200 mg/kg, actives vis-à-vis des convulsions pentétrazoliques et des crises psychomotrices. A noter que l'épreuve de la planche à trous utilisée pour chiffrer la curiosité des animaux (décompte du nombre de visites des trous) n'est pratiquée qu'une seule fois, le comportement explorateur des animaux traités étant alors comparé à celui des témoins.
(§3) Les résultats obtenus dans chaque groupe ont permis de calculer la DA50 capable de diminuer de 50 X les performances motrices initiales ou de diminuer de 50% la curiosité des souris traitées par rapport à celle des témoins.
(§4) Les expérimentations comportementales précédemment décrites ont été appliquées à des animaux recevant SCS 35 et SCS 289 aux doses de 10 et 25 mg/kg.

[4] = tested on: curiosité de la souris; assay: Hole-board test (curiosity, exploratory behaviour); type: in vivo
Source text: as §1, §2, §3, §4

[5] = Traction test of Boissier and Simon (agility); type: in vivo, souris; details: mouse, in vivo, po; dose diminishing initial performance by 50 %; read-out: DA50 agilité
Source text: as §1, §2, §3, §4

[6] = tested on: agilité de la souris; assay: Traction test of Boissier and Simon (agility); type: in vivo
Source text: as §1, §2, §3, §4

[7] = Weights test (muscular strength); type: in vivo, souris; details: mouse, in vivo, po; dose diminishing initial performance by 50 %; read-out: DA50 force musculaire
Source text: as §1, §2, §3, §4

[8] = tested on: force musculaire de la souris; assay: Weights test (muscular strength); type: in vivo
Source text: as §1, §2, §3, §4

[9] = Spontaneous motor activity; type: in vivo, souris; details: mouse, in vivo, po; dose diminishing initial performance by 50 %; read-out: DA50 motricité
Source text: as §1, §2, §3, §4

[10] = tested on: motricité spontanée de la souris; assay: Spontaneous motor activity; type: in vivo
Source text: as §1, §2, §3, §4

[11] = Narcotic effect; details: mouse, in vivo; souris; read-out: DE50 narcotique
Protocol: En ce qui concerne la maniabilité, la comparaison des doses de SCS 289 exerçant, chez la souris, des effets létaux et anticonvulsivants permet de prévoir une marge thérapeutique assez confortable (dans le domaine du "petit mal") : • - DL50 = 2300 + 102 mg/kg; • - DE50 narcotique, comprise entre 1 et 2 g/kg; • - DE50 anticonvulsivante vis-à-vis du ^pentétrazol; • - DE50 anticonvulsivante vis-à-vis des crises psychomotrices.

[12] = lapins ayant reçu 50 mg/kg de SCS 289
[13] = lapins ayant reçu 100 mg/kg de SCS 289
[14] = 10 mg/kg voie digestive, one hour after treatment

## CC(C)OC(=O)N(C(N)=O)c1ccccc1 [SCS 289, phényl-2 allophanate d'isopropyle]
[1]; voie digestive, méthode de Miller et Tainter, read-out: DL50
  LD50 at 168 h: 2050 mg/kg
[1]; 500 mg/kg voie digestive
  mortality at 168 h: 0%
[1]; 1000 mg/kg voie digestive
  mortality at 168 h: 15%
[1]; 1500 mg/kg voie digestive
  mortality at 168 h: 30%
[1]; 2000 mg/kg voie digestive
  mortality at 168 h: 55%
[1]; 2500 mg/kg voie digestive
  mortality at 168 h: 60%
[1]; 3000 mg/kg voie digestive
  mortality at 168 h: 65%
[1]; 3500 mg/kg voie digestive
  mortality at 168 h: 80%
[1]; 4000 mg/kg voie digestive
  mortality at 168 h: 100%
[2]; 50 mg/kg
  Elévation du seuil myoclonique: 61,7%
  Dose moyenne de pentétrazol: 37,2 mg/kg
[2]; 100 mg/kg
  Elévation du seuil myoclonique: 113%
  Dose moyenne de pentétrazol: 49,2 mg/kg
[2]; [12]
  Quantité de pentétrazol nécessaire à l'apparition des myoclonies palpébrales: 40,78 mg/kg and 42,58 mg/kg and 51,43 mg/kg and 33,33 mg/kg and 43,68 mg/kg and 32,44 mg/kg and 22,22 mg/kg and 40 mg/kg and 45,15 mg/kg and 20 mg/kg
  Temps d'infusion veineuse nécessaire à l'apparition des myoclonies palpébrales: 26 minutes et secondes and 28 minutes et secondes (2×) and 36 minutes et secondes and 21,15 minutes et secondes and 31,40 minutes et secondes and 22,20 minutes et secondes and 15 minutes et secondes and 28,40 minutes et secondes and 16 minutes et secondes
[2]; [13]
  Quantité de pentétrazol nécessaire à l'apparition des myoclonies palpébrales: 51,85 mg/kg and 51,81 mg/kg and 46,28 mg/kg and 64 mg/kg and > 68,44 mg/kg and 45,15 mg/kg and 56,67 mg/kg and 33,84 mg/kg and 37,71 mg/kg and 36,41 mg/kg
  Temps d'infusion veineuse nécessaire à l'apparition des myoclonies palpébrales: 35 minutes et secondes and 37 minutes et secondes and 28 minutes et secondes and 32 minutes et secondes and > 45 minutes et secondes and 28,40 minutes et secondes and 34 minutes et secondes and 33 minutes et secondes (2×) and 35,30 minutes et secondes
[2]; relative activity, lapin
  activité vis-à-vis des myoclonies palpébrales du lapin par rapport au valproate de sodium: dix fois plus actif
  activité vis-à-vis des myoclonies palpébrales du lapin par rapport à la phénacétamide: deux fois plus actif
[3]; méthode de Miller et Tainter, read-out: DA50 capable de diminuer de 50 % la curiosité de la souris
  ED50 at 1 h: 82.5 mg/kg
[3]; souris, read-out: DA50 curiosité par rapport aux doses anticonvulsivantes (pentétrazol / crises psychomotrices)
  selectivity ratio: 15 to 18
[4]; 10 mg/kg, par souris pendant cinq minutes, témoins 26,5
  Nb de visites des trous Traités: 27
[4]; 25 mg/kg, témoins 26,4
  Nb de visites des trous Traités: 27,4
[4]; 50 mg/kg, témoins 24,2
  Nb de visites des trous Traités: 23,6
[4]; 75 mg/kg, témoins 27
  Nb de visites des trous Traités: 21,4
[4]; 100 mg/kg, témoins 25,4
  Nb de visites des trous Traités: 8,6
[4]; 150 mg/kg, témoins 24,2
  Nb de visites des trous Traités: 0
[4]; 200 mg/kg, témoins 24,2
  Nb de visites des trous Traités: 0
[4]; méthode de Miller et Tainter, 60 min
  DA50 capable de diminuer de 50 % la curiosité de la souris: 82,5 ± 7,6 mg/kg and ~82 mg/kg
[5]
  ED50 at 1 h: 42 mg/kg
[6]; [14]
  Propriétés déficitaires motrices sur l'agilité (pourcentage de diminution des scores): 6,7%
[6]; 25 mg/kg
  Propriétés déficitaires motrices sur l'agilité (pourcentage de diminution des scores): 20%
[6]; 50 mg/kg
  Propriétés déficitaires motrices sur l'agilité (pourcentage de diminution des scores): 41,7%
[6]; 75 mg/kg
  Propriétés déficitaires motrices sur l'agilité (pourcentage de diminution des scores): 77,3%
[6]; 100 mg/kg
  Propriétés déficitaires motrices sur l'agilité (pourcentage de diminution des scores): 90%
[6]; 150 mg/kg
  Propriétés déficitaires motrices sur l'agilité (pourcentage de diminution des scores): 100%
[6]; 200 mg/kg
  Propriétés déficitaires motrices sur l'agilité (pourcentage de diminution des scores): 100%
[7]
  ED50 at 1 h: 63 mg/kg
[8]; [14]
  Propriétés déficitaires motrices sur la force musculaire (pourcentage de diminution des scores): 3,8%
[8]; 25 mg/kg
  Propriétés déficitaires motrices sur la force musculaire (pourcentage de diminution des scores): 8,3%
[8]; 50 mg/kg
  Propriétés déficitaires motrices sur la force musculaire (pourcentage de diminution des scores): 33%
[8]; 75 mg/kg
  Propriétés déficitaires motrices sur la force musculaire (pourcentage de diminution des scores): 31,9%
[8]; 100 mg/kg
  Propriétés déficitaires motrices sur la force musculaire (pourcentage de diminution des scores): 80,4%
[8]; 150 mg/kg
  Propriétés déficitaires motrices sur la force musculaire (pourcentage de diminution des scores): 100%
[8]; 200 mg/kg
  Propriétés déficitaires motrices sur la force musculaire (pourcentage de diminution des scores): 100%
[9]
  ED50 at 1 h: 120 mg/kg
[10]; [14]
  Propriétés déficitaires motrices sur la motricité (pourcentage de diminution des scores): 0%
[10]; 25 mg/kg
  Propriétés déficitaires motrices sur la motricité (pourcentage de diminution des scores): 20%
[10]; 50 mg/kg
  Propriétés déficitaires motrices sur la motricité (pourcentage de diminution des scores): 25%
[10]; 75 mg/kg
  Propriétés déficitaires motrices sur la motricité (pourcentage de diminution des scores): 30%
[10]; 100 mg/kg
  Propriétés déficitaires motrices sur la motricité (pourcentage de diminution des scores): 50%
[10]; 150 mg/kg
  Propriétés déficitaires motrices sur la motricité (pourcentage de diminution des scores): 100%
[10]; 200 mg/kg
  Propriétés déficitaires motrices sur la motricité (pourcentage de diminution des scores): 100%
[11]
  ED50: 1000 to 2000 mg/kg
